Assays:
antocyanin production = experiment: Inhibitory effect on antocyanin production in red cabbage seedlings in water culture; assay type: in vivo, red cabbase (var.: Ruby Ball); settings: 5 days at 25°C under 8000 luxes, in contrast to the non-treated plot
Method: Water culture (10 ml) containing the compound (I) was charged in a reaction vessel, and on adsorbed cotton laid down therein 15 seeds of red cabbase (var.: Ruby Ball) were sowed and cultivated for 5 days at 25°C under 8000 luxes. The shoot of the […] cabbage was cut and antocyanin was extracted with 1N hydrochloric acid (5 ml). The amount of antocyanin thus extracted was calculated by meauring an absorption at 535 nm on a spectrophotometer. The concentration of the compound (I) which inhibits 50 % the antocyanin production was calculated in contrast to the non-treated plot. Still, neither abnormality in the vegetative part nor suppression of growth of the test plant due to Compound (I) could be observed.

wheat = experiment: Inhibitory effect on lignin production in wheat and softening of wheat culm; assay type: in vivo, Wheat (var.: Nohrin No. 61); design: key: -: unchanged; +++: prominently softened; settings: wettable powder applied to the soil, hardness of culms determined manually versus untreated
Excerpt: Wheat seeds (var.: Nohrin No. 61) were sowed in small pots (6 seeds/pot) and cultivated in a greenhouse for about one month. When differentiation of culm was recognized, a designated amount of the compound in the form of a wettable powder according to Formulation Example 2 was applied to the soil, and cultivation was continued until blooming. Hardness of wheat culms in contrast to those of untreated was manually determined and evaluated into four indices ranging from (-: unchanged) to (+++: prominently softened).

scopolamine production = experiment: Promoting effect on scopolamine production in hairy root culture; assay type: cell-based, Duboisia leichhardtii; settings: per culture (50 ml), 28 days after addition
Method: Hairy root of Duboisia leichhardtii are known to produce scopolamine once vegetative parts were infected with Agrobacterium rhizogenes (Plant Science, 59, 191 - 201 (1989)). One hairy root of Duboisia (var.: DL47-1) (wet content, 100 mg) was inoculated in a liquid HF-3 medium (50 ml) and subjected to rotation-culture with a speed of 85 rotations/min at 25°C in the dark place. After twenty-one days, 1000-fold dilution of a dimethylsulfoxide solution of Compound (I) was added to the culture medium to make its final concentration constant. Twenty-eight days thereafter, scopolamine in the hairy roots and the medium was respectively extracted and its amount was measured on a high performance liquid chromatography (HPLC).

[1] = system: chlorogenic acid production; experiment: Inhibitory effect on chlorogenic acid production in sunflower; assay type: in vivo, Sunflowers (var.: Russian Sunflower); settings: 1000 ppm wettable powder sprayed over the flowers; seed endosperm, HPLC; non-treated 3.4
Method: Sunflowers (var.: Russian Sunflower) were grown in a greenhouse for two weeks and transplanted in Wagner's pots (1/5000 are) and cultivated for 2 months outdoors. When 5 to 10 days elapsed after blooming, a designated amount of the compound in the form of a wettable powder according to Formulation Example 2 was sprayed over the flowers, from which seeds were harvested. Endosperm of the seeds were crushed and subjected to boiling-extraction with ethanol and filtration. The filtrate was diluted with 0.05 M aqueous H₃PO₄ and further filtered. The amount of chlorogenic acid was quantitatively analysed by HPLC (column: Nucleosil C18 (8 mm x 25 cm); eluent: methanol : 0.05 M H₃PO₄ (35 : 75)).

morningglory = experiment: Inhibitory effect on antocyanin production in morningglory (soil or foliar treatment); assay type: in vivo, morningglory (var.: Scarlet Ohara); settings: soil and foliar spray treatments
Method: Seeds of morningglory (var.: Scarlet Ohara) was sowed in small pots (diameter, 8 cm) and cultivated in a greenhouse. At the time of development of cotyledons (9 days after sowing), short-day treatment was performed for 1 week to induce flowering. Five days prior to flowering (length of buds being about 1 to 2 cm), a designated amount of the compound (I) was applied to the soil or sprayed to the foliage of the plant. Cultivation was continued, and color of petals was visually observed in contrast to the non-treated plot and evaluated into five indices ranging from (-: no influence) to (++++: completely whitened).

CCOC(=O)C(=N)Nc1cccc(F)c1C [Compound No. 26, ethyl N-(3-fluoro-2-methylphenyl)amidinoformate]
Concentration of 50 % inhibition of antocyanin production (antocyanin production): 0.06 ppm

Cc1c(Cl)cccc1NC(=N)C(=O)[O-].[Na+] [Compound No. 30, sodium salt of N-(3-chloro-2-methylphenyl)amidinoformic acid]
Concentration of 50 % inhibition of antocyanin production (antocyanin production): 0.05 ppm

Cc1cc(F)ccc1NC(=N)C(=O)O [Compound No. 5, N-(4-fluoro-2-methylphenyl)amidinoformic acid]
Concentration of 50 % inhibition of antocyanin production (antocyanin production): 0.1 ppm

Cc1c(F)cccc1NC(=N)C(=O)O [Compound No. 1, N-(3-fluoro-2-methylphenyl)amidinoformic acid]
Softening index (wheat; 4 mg/pot): +++
Amount of scopolamine (mg) Medium (scopolamine production; final concentration 0.1 mg/l): 2.7 mg
Amount of scopolamine (mg) Root (scopolamine production; final concentration 0.1 mg/l): 2.1 mg
Amount of scopolamine (mg) Total (scopolamine production; final concentration 0.1 mg/l): 4.8 mg
Amount of scopolamine (mg) Medium (scopolamine production; final concentration 1.0 mg/l): 3.4 mg
Amount of scopolamine (mg) Root (scopolamine production; final concentration 1.0 mg/l): 2.4 mg
Amount of scopolamine (mg) Total (scopolamine production; final concentration 1.0 mg/l): 5.8 mg
Content of chlorogenic acid [1]: 1.3 µg/mg fr.wt
Concentration of 50 % inhibition of antocyanin production (antocyanin production): 0.04 ppm

NOC(Cc1ccccc1)C(=O)O (stereo not shown) [AOPP, 2-aminoxy-3-phenylpropionic acid, reference compound]
phytotoxicity / adverse effect in the treated plants (morningglory): severe phytotoxicity (withering of leaves)
Concentration of 50 % inhibition of antocyanin production (antocyanin production): 4 ppm

Cc1c(Cl)cccc1NC(=N)C(=O)[O-].[K+] [Compound No. 31, potassium salt of N-(3-chloro-2-methylphenyl)amidinoformic acid]
Concentration of 50 % inhibition of antocyanin production (antocyanin production): 0.05 ppm

Cc1ccc(Cl)cc1NC(=N)C(=O)O [Compound No. 4, N-(5-chloro-2-methylphenyl)amidinoformic acid]
Concentration of 50 % inhibition of antocyanin production (antocyanin production): 0.1 ppm

Cc1c(Cl)cccc1NC(=N)C(=O)O [Compound No. 3, N-(3-chloro-2-methylphenyl)amidinoformic acid]
Softening index (wheat; 2 mg/pot): +++
Content of chlorogenic acid [1]: 1.0 µg/mg fr.wt
Concentration of 50 % inhibition of antocyanin production (antocyanin production): 0.02 ppm

— patent EP0406760B1, “Plant growth regulating composition” (SUMITOMO CHEMICAL COMPANY, LIMITED, priority 1989, dated 1991)
